Measurements reported in paper PMC12578388, “Allosteric modulation of the solute carrier transporter SLC39A8 potentiates manganese and cadmium uptake” (The Journal of Clinical Investigation, 2025).

Legend:
Format in all cases: cell-based
[1] = molecular target: T1, pig SLC39A8 (Sus scrofa, UniProt A0A480EKF5, F327C); experiment: Cd uptake in cells expressing mutant pig SLC39A8 (gain of EFV sensitivity)
T1 sequence (A0A480EKF5 20-461 F327C): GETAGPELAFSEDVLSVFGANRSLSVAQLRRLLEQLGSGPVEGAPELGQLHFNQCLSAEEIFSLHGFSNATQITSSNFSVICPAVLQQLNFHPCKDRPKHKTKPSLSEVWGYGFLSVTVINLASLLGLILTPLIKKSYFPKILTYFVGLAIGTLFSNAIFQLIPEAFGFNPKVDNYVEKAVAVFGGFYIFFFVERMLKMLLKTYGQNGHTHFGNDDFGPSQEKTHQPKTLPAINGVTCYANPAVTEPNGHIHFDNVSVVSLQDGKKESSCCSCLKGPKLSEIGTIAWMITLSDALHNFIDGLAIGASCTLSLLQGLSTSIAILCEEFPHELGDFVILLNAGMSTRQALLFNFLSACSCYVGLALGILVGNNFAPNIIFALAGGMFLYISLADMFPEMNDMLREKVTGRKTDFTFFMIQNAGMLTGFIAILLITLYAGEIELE

[2] = molecular target: T2, mouse SLC39A8 (Mus musculus, UniProt Q91W10); experiment: Cd uptake in cells expressing mouse SLC39A8
T2 sequence (Q91W10 20-462): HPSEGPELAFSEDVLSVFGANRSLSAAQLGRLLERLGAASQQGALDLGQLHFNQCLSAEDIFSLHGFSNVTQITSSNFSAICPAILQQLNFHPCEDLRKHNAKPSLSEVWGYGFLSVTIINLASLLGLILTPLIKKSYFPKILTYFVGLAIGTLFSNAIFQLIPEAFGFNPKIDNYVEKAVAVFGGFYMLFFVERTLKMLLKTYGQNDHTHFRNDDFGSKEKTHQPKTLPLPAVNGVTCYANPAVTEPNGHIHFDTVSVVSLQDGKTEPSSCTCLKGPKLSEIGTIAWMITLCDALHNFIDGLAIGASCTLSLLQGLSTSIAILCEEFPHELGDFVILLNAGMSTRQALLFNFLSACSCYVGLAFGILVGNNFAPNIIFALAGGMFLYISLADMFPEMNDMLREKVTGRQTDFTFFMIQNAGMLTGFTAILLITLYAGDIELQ

[3] = molecular target: T3, rat SLC39A8 (Rattus norvegicus, UniProt Q5FVQ0, Y328C); experiment: Cd uptake in cells expressing mutant rat SLC39A8 (gain of EFV sensitivity)
T3 sequence (Q5FVQ0 20-462 Y328C): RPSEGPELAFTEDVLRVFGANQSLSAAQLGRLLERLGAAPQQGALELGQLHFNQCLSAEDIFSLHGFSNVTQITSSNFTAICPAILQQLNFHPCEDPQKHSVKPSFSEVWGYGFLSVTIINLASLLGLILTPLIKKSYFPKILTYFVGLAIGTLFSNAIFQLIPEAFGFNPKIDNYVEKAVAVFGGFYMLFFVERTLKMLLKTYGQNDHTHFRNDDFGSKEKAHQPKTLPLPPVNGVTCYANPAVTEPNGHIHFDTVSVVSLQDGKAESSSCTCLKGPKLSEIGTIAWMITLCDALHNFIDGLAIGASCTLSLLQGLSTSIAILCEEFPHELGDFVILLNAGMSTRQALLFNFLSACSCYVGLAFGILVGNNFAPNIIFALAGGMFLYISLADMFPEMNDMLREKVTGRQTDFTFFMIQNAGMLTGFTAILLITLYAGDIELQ

SMILES: O=C1Nc2ccc(Cl)cc2[C@@](C#CC2CC2)(C(F)(F)F)O1 [compound 1, efavirenz]
- Cd uptake in cells expressing mutant pig SLC39A8 (gain of EFV sensitivity) [1]: EFV sensitivity could be created by replacing these residues with cysteine in pig F327C and rat Y328C, respectively
- Cd uptake in cells expressing mouse SLC39A8 [2]: EFV was able to enhance Cd uptake in cells expressing mouse SLC39A8 but not chicken, frog, or zebrafish
- Cd uptake in cells expressing mutant rat SLC39A8 (gain of EFV sensitivity) [3]: EFV sensitivity could be created by replacing these residues with cysteine in pig F327C and rat Y328C, respectively
